Target: T1, human β-Secretase (Homo sapiens, UniProt P56817)
T1 construct: The soluble part of the human β-Secretase (AA 1-AA 460) was cloned; made in house
Test: TR-FRET assay
Type: biochemical
Conditions: soluble human β-Secretase (sBACE-Fc), substrate (Europium)[…](Qsy7) 100 nM, pH 4.5
Protocol: The enzyme used in the IGEN Cleavage-, Fluorescent-, TR-FRET- and BiaCore assays is described as follows: The soluble part of the human β-Secretase (AA 1-AA 460) was cloned into the […]-Fc10-1-IRES-GFP-neoK mammalian expression vector. The gene was fused to the Fc domain of IgG1 (affinity tag) and stably cloned into HEK 293 cells. Purified sBACE-Fc is stored in Tris buffer, pH 9.2 and has a purity of 95%. TR-FRET Assay Enzyme was diluted to 6 μg/mL and the substrate ([…]7) to 200 nM in reaction buffer (NaAcetate, chaps, triton x-100, EDTA pH 4.5). Compounds were diluted to the desired concentration in dimethyl sulfoxide (final dimethyl sulfoxide concentration in assay is 5%). […] Enzyme (9 μL) and 1 μL of compound in dimethyl sulfoxide was added to the plate, mixed and pre-incubated for 10 min. Substrate (10 μL) was added and the reaction proceeded in the dark for 15 min at RT. The reaction was stopped with the addition of 7 μL NaAcetate, pH 9.

T1 sequence (P56817 22-460): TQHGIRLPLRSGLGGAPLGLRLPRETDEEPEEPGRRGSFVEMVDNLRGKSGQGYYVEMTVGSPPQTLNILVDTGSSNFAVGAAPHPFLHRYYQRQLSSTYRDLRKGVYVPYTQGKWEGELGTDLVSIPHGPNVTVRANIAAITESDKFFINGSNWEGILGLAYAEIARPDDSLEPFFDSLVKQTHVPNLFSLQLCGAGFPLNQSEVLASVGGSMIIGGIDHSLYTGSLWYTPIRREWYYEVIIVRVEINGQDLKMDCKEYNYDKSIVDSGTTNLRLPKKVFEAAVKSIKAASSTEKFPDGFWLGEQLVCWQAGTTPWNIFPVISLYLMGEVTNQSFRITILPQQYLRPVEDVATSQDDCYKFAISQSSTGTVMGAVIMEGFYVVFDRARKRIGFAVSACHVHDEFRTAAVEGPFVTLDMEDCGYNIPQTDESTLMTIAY

IC50 [nM] | Compound
253 | COc1ccc(C2(c3cccc(-c4cncnc4)c3)N=C(N)N3CC(S(C)(=O)=O)CN=C32)cc1 (mixture of isomers) [Example 28, 8-(4-Methoxyphenyl)-3-(methylsulfonyl)-8-(3-pyrimidin-5-ylphenyl)-2,3,4,8-tetrahydroimidazol[1,5-a]pyrimidin-6-amine 2.0 acetate]
119 | COc1ccc(C2(c3cccc(-c4cncnc4)c3)N=C(N)N3CC(O)CN=C32)cc1 (mixture of isomers) [Example 30, 6-Amino-8-(4-methoxyphenyl)-8-(3-pyrimidin-5-ylphenyl)-2,3,4,8-tetrahydroimidazo[1,5-a]pyrimidin-3-ol]
571 | COc1ccc(C2(c3cccc(-c4cncnc4)c3)N=C(N)N3CC(OC)CN=C32)cc1 (mixture of isomers) [Example 32, 3-Methoxy-8-(4-methoxyphenyl)-8-(3-pyrimidin-5-ylphenyl)-2,3,4,8-tetrahydroimidazo[1,5-a]pyrimidin-6-amine]
59 | COc1ccc(C2(c3cccc(-c4cncnc4)c3)N=C(N)N3CC(F)CN=C32)cc1 (mixture of isomers) [Example 50, 3-Fluoro-8-(4-methoxyphenyl)-8-(3-pyrimidin-5-ylphenyl)-2,3,4,8-tetrahydroimidazo[1,5-a]pyrimidin-6-amine 4.0 acetate]
76 | COc1ccc(C2(c3cccc(-c4cccnc4)c3)N=C(N)N3CC(F)(F)CN=C32)cc1 (centres unmarked) [Example 40, 3,3-Difluoro-8-(4-methoxyphenyl)-8-(3-pyridin-3-ylphenyl)-2,3,4,8-tetrahydroimidazo[1,5-a]pyrimidin-6-amine 0.75 acetate]
30 | COc1ccc(C2(c3cccc(-c4cncc(OC)c4)c3)N=C(N)N3CC(F)(F)CN=C32)cc1 (centres unmarked) [Example 41, 3,3-Difluoro-8-(4-methoxyphenal)-8-[3-(5-methoxypyridin-3-yl)phenyl]-2,3,4,8-tetrahydroimidazo[1,5-a]pyrimidin-6-amine 0.75 acetate]
29 | COc1ccc(C2(c3cccc(-c4cccnc4F)c3)N=C(N)N3CC(F)(F)CN=C32)cc1 (centres unmarked) [Example 42, 3,3-Difluoro-8-[3-(2-fluoropyridin-3-yl)phenyl]-8-(4-methoxyphenyl)-2,3,48-tetrahydroimidazo[1,5-a]pyrimidin-6-amine 0.75 acetate]
41 | COc1cncc(-c2cccc(C3(c4ccncc4)N=C(N)N4CC(F)(F)CN=C43)c2)c1 (centres unmarked) [Example 43, 3,3-Difluoro-8-[3-(5-methoxypyridin-3-yl)phenyl]-8-pyridin-4-yl-2,3,4,8-tetrahydroimidazo[1,5-a]pyrimidin-6-amine acetate]
120 | NC1=NC(c2ccncc2)(c2cccc(-c3cccnc3F)c2)C2=NCC(F)(F)CN12 (centres unmarked) [Example 44, 3,3-Difluoro-8-[3-(2-fluoropyridin-3-yl)phenyl]-8-pyridin-4-yl-2,3,4,8-tetrahydroimidazo[1,5-a]pyrimidin-6-amine 0.75 acetate]
59 | NC1=NC(c2ccncc2)(c2cccc(-c3cncc(F)c3)c2)C2=NCC(F)(F)CN12 (centres unmarked) [Example 47, 3,3-Difluoro-8-[3-(5-fluoropyridin-3-yl)phenyl]-8-pyridin-4-yl-2,3,4,8-tetrahydroimidazo[1,5-a]pyrimidin-6-amine acetate]
2300 | CN(C)C(=O)c1cccc(C2(c3cccc(-c4cccnc4F)c3)N=C(N)N3CC(F)(F)CN=C32)c1 (centres unmarked) [Example 69, 3-{6-Amino-3,3-difluoro-8-[3-(2-fluoropyridin-3-yl)phenyl]-2,3,4,8-tetrahydroimidazo[1,5-a]pyrimidin-8-yl}-N,N-dimethylbenzamide]
2100 | CN(C)C(=O)c1ccc(C2(c3cccc(-c4cccnc4F)c3)N=C(N)N3CC(F)(F)CN=C32)cc1 (centres unmarked) [Example 70, 4-{6-Amino-3,3-difluoro-8-[3-(2-fluoropyridin-3-yl)phenyl]-2,3,4,8-tetrahydroimidazo[1,5-a]pyrimidin-8-yl}-N,N-dimethylbenzamide]
41 | COc1ccc(C2(c3ccc(F)c(-c4cccnc4F)c3)N=C(N)N3CC(F)(F)CN=C32)cc1C (centres unmarked) [Example 87, 3,3-Difluoro-8-(4-fluoro-3-(2-fluoropyridin-3-yl)phenyl)-8-(4-methoxy-3-methylphenyl)-2,3,4,8-tetrahydroimidazo[1,5-a]pyrimidin-6-amine acetate]
92 | COc1ccc(C2(c3ccc(F)c(-c4cncnc4)c3)N=C(N)N3CC(F)(F)CN=C32)cc1C (centres unmarked) [Example 88, 3,3-Difluoro-8-(4-fluoro-3-(pyrimidin-5-yl)phenyl)-8-(4-methoxy-3-methylphenyl)-2,3,48-tetrahydroimidazo[1,5-a]pyrimidin-6-amine acetate]
